In brackets after ≈: the same amount, converted by molar mass.
Experiments:
Assay type in all cases: functional
Bacillus cereus = test: Antibacterial activity against Bacillus cereus NCIM-2156 after 24 hrs by broth dilution method; settings: NCIM-2156, 24 h
Proteus vulgaris = test: Antibacterial activity against Proteus vulgaris NCIM-2027 after 24 hrs by broth dilution method; settings: NCIM-2027, 24 h
Staphylococcus aureus [1] = test: Antibacterial activity against Staphylococcus aureus NCIM-2079 after 24 hrs by broth dilution method; settings: NCIM-2079, 24 h
Bacillus subtilis = test: Antibacterial activity against Bacillus subtilis NCIM-2063 after 24 hrs by broth dilution method; settings: NCIM-2063, 24 h
Escherichia coli = test: Antibacterial activity against Escherichia coli NCIM-2065 after 24 hrs by broth dilution method; settings: NCIM-2065, 24 h
Staphylococcus aureus [2] = test: Antibiofilm activity against Staphylococcus aureus NCIM-2079 after 16 hrs
Pseudomonas aeruginosa = test: Antibacterial activity against Pseudomonas aeruginosa NCIM-2036 after 24 hrs by broth dilution method; settings: NCIM-2036, 24 h

Compound | MIC (Bacillus cereus) [µg/mL] | MIC (Proteus vulgaris) [µg/mL] | MIC (Staphylococcus aureus [1]) [µg/mL] | MIC (Bacillus subtilis) [µg/mL] | MIC (Escherichia coli) [µg/mL] | Activity (Staphylococcus aureus [2]) [µg/mL] | MIC (Pseudomonas aeruginosa) [µg/mL]
S=C(Nc1nc(Nc2ccc(Cl)cc2)nc(Nc2ccc(Cl)cc2)n1)N1N=C(c2ccccc2)CC1c1ccccc1 (configuration not stated) | 31.2 (≈ 51.1 µM) | 15.6 (≈ 25.5 µM) | 15.6 (≈ 25.5 µM) | 7.81 (≈ 12.8 µM) | 31.2 (≈ 51.1 µM) | 31.25 | 31.2 (≈ 51.1 µM)
O=[N+]([O-])c1ccccc1C1CC(c2ccccc2)=NN1C(=S)Nc1nc(Nc2ccc(Cl)cc2)nc(Nc2ccc(Cl)cc2)n1 (configuration not stated) | 31.2 (≈ 47.6 µM) | 62.5 (≈ 95.2 µM) | 62.5 (≈ 95.2 µM) | 15.6 (≈ 23.8 µM) | 125 (≈ 190 µM) | 125 | 125 (≈ 190 µM)
O=[N+]([O-])c1ccc(C2CC(c3ccccc3)=NN2C(=S)Nc2nc(Nc3ccc(Cl)cc3)nc(Nc3ccc(Cl)cc3)n2)cc1 (configuration not stated) | 125 (≈ 190 µM) | 62.5 (≈ 95.2 µM) | 125 (≈ 190 µM) | 31.2 (≈ 47.6 µM) | 62.5 (≈ 95.2 µM) | 125 | 62.5 (≈ 95.2 µM)
S=C(Nc1nc(Nc2ccc(Cl)cc2)nc(Nc2ccc(Cl)cc2)n1)N1N=C(c2ccccc2)CC1c1ccccc1Cl (configuration not stated) | 62.5 (≈ 96.7 µM) | 15.6 (≈ 24.2 µM) | 15.6 (≈ 24.2 µM) | 3.91 (≈ 6.05 µM) | 15.6 (≈ 24.2 µM) | 31.25 | 15.6 (≈ 24.2 µM)
S=C(Nc1nc(Nc2ccc(Cl)cc2)nc(Nc2ccc(Cl)cc2)n1)N1N=C(c2ccccc2)CC1c1ccc(Cl)cc1 (configuration not stated) | 15.6 (≈ 24.2 µM) | 15.6 (≈ 24.2 µM) | 15.6 (≈ 24.2 µM) | 3.91 (≈ 6.05 µM) | 7.81 (≈ 12.1 µM) | 62.5 | 7.81 (≈ 12.1 µM)
O=[N+]([O-])c1cccc(Nc2nc(NC(=S)N3N=C(c4ccccc4)CC3c3ccccc3)nc(Nc3cccc([N+](=O)[O-])c3)n2)c1 (configuration not stated) | 7.81 (≈ 12.3 µM) | 7.81 (≈ 12.3 µM) | 7.81 (≈ 12.3 µM) | 15.6 (≈ 24.7 µM) | 7.81 (≈ 12.3 µM) | 31.25 | 7.81 (≈ 12.3 µM)
O=[N+]([O-])c1cccc(Nc2nc(NC(=S)N3N=C(c4ccccc4)CC3c3ccccc3[N+](=O)[O-])nc(Nc3cccc([N+](=O)[O-])c3)n2)c1 (configuration not stated) | 62.5 (≈ 92.2 µM) | 62.5 (≈ 92.2 µM) | 15.6 (≈ 23 µM) | 62.5 (≈ 92.2 µM) | 125 (≈ 184 µM) | 125 | 125 (≈ 184 µM)
O=[N+]([O-])c1ccc(C2CC(c3ccccc3)=NN2C(=S)Nc2nc(Nc3cccc([N+](=O)[O-])c3)nc(Nc3cccc([N+](=O)[O-])c3)n2)cc1 (configuration not stated) | 125 (≈ 184 µM) | 62.5 (≈ 92.2 µM) | 31.2 (≈ 46.1 µM) | 31.2 (≈ 46.1 µM) | 62.5 (≈ 92.2 µM) | 62.5 | 62.5 (≈ 92.2 µM)
O=[N+]([O-])c1cccc(Nc2nc(NC(=S)N3N=C(c4ccccc4)CC3c3ccccc3Cl)nc(Nc3cccc([N+](=O)[O-])c3)n2)c1 (configuration not stated) | 15.6 (≈ 23.4 µM) | 31.2 (≈ 46.8 µM) | 15.6 (≈ 23.4 µM) | 15.6 (≈ 23.4 µM) | 15.6 (≈ 23.4 µM) | 62.5 | 15.6 (≈ 23.4 µM)
O=[N+]([O-])c1cccc(Nc2nc(NC(=S)N3N=C(c4ccccc4)CC3c3ccc(Cl)cc3)nc(Nc3cccc([N+](=O)[O-])c3)n2)c1 (configuration not stated) | 7.81 (≈ 11.7 µM) | 15.6 (≈ 23.4 µM) | 15.6 (≈ 23.4 µM) | 7.81 (≈ 11.7 µM) | 31.2 (≈ 46.8 µM) | 15.62 | 31.2 (≈ 46.8 µM)
Fc1ccc(Nc2nc(NC(=S)N3N=C(c4ccccc4)CC3c3ccccc3)nc(Nc3ccc(F)cc3)n2)cc1 (configuration not stated) | 3.91 (≈ 6.76 µM) | 15.6 (≈ 27 µM) | 7.81 (≈ 13.5 µM) | 7.81 (≈ 13.5 µM) | 15.6 (≈ 27 µM) | 15.62 | 15.6 (≈ 27 µM)
O=[N+]([O-])c1ccccc1C1CC(c2ccccc2)=NN1C(=S)Nc1nc(Nc2ccc(F)cc2)nc(Nc2ccc(F)cc2)n1 (configuration not stated) | 62.5 (≈ 100 µM) | 31.2 (≈ 50.1 µM) | 31.2 (≈ 50.1 µM) | 31.2 (≈ 50.1 µM) | 31.2 (≈ 50.1 µM) | 31.25 | 31.2 (≈ 50.1 µM)
O=[N+]([O-])c1ccc(C2CC(c3ccccc3)=NN2C(=S)Nc2nc(Nc3ccc(F)cc3)nc(Nc3ccc(F)cc3)n2)cc1 (configuration not stated) | 31.2 (≈ 50.1 µM) | 62.5 (≈ 100 µM) | 31.2 (≈ 50.1 µM) | 15.6 (≈ 25 µM) | 31.2 (≈ 50.1 µM) | 62.5 | 31.2 (≈ 50.1 µM)
Fc1ccc(Nc2nc(NC(=S)N3N=C(c4ccccc4)CC3c3ccccc3Cl)nc(Nc3ccc(F)cc3)n2)cc1 (configuration not stated) | 15.6 (≈ 25.5 µM) | 7.81 (≈ 12.7 µM) | 15.6 (≈ 25.5 µM) | 7.81 (≈ 12.7 µM) | 15.6 (≈ 25.5 µM) | 62.5 | 15.6 (≈ 25.5 µM)
Fc1ccc(Nc2nc(NC(=S)N3N=C(c4ccccc4)CC3c3ccc(Cl)cc3)nc(Nc3ccc(F)cc3)n2)cc1 (configuration not stated) | 7.81 (≈ 12.7 µM) | 15.6 (≈ 25.5 µM) | 31.2 (≈ 51 µM) | 3.91 (≈ 6.38 µM) | 7.81 (≈ 12.7 µM) | 31.25 | 7.81 (≈ 12.7 µM)
C=CC1=C(C(=O)O)N2C(=O)[C@@H](NC(=O)/C(=N\OCC(=O)O)c3csc(N)n3)[C@H]2SC1 [CEFIXIME] | 3.91 (≈ 8.62 µM) | 7.81 (≈ 17.2 µM) | 7.81 (≈ 17.2 µM) | 1.95 (≈ 4.3 µM) | 3.91 (≈ 8.62 µM) |  | 3.91 (≈ 8.62 µM)
CN[C@H](CC(C)C)C(=O)N[C@H]1C(=O)N[C@@H](CC(N)=O)C(=O)N[C@H]2C(=O)N[C@H]3C(=O)N[C@H](C(=O)N[C@H](C(=O)O)c4cc(O)cc(O)c4-c4cc3ccc4O)[C@H](O)c3ccc(c(Cl)c3)Oc3cc2cc(c3O[C@@H]2O[C@H](CO)[C@@H](O)[C@H](O)[C@H]2O[C@H]2C[C@](C)(N)[C@H](O)[C@H](C)O2)Oc2ccc(cc2Cl)[C@H]1O [VANCOMYCIN] |  |  |  |  |  | 3.91 | 
